# Measurements reported in patent publication US11629171B2, “Beta-hairpin peptidomimetics” (POLYPHOR AG, priority 2017, dated 2023).
# Where a SMILES comes first, the peptide text is derived from it. Bridges are numbered along the chain shown (N, C = ends). Roman numbers before positions name the chains, in order. [ ]: non-standard residue; d: D form. Tle = CC(C)(C)[C@H](N)C(=O)O; Hiv = CC(C)[C@H](O)C(=O)O; dDab = NCC[C@@H](N)C(=O)O; Orn = NCCC[C@H](N)C(=O)O; Dab = NCC[C@H](N)C(=O)O; Abu = CC[C@H](N)C(=O)O; Dap = NC[C@H](N)C(=O)O
# How the values were obtained:
# [1] = tested on: Acinetobacter baumannii 872842; type: cell-based; conditions: 872842
# Method in brief: (§1)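 CLSI broth microdilution in cation-adjusted Mueller-Hinton II broth with 0.002% polysorbate 80 (final), inoculum appr. 10^6 CFU/mL, peptides in serial two-fold dilutions. MIC (μg/mL) is the lowest concentration without visible growth after 18-20 h at 35° C.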
# [2] = tested on: Acinetobacter baumannii DSM 30008; type: cell-based; conditions: DSM 30008
# Method in brief: as §1
# [3] = tested on: Enterobacter cloacae 848840; type: cell-based; conditions: 848840
# Method in brief: as §1
# Escherichia coli 926415 = type: cell-based; conditions: 926415
# Method in brief: as §1
# [4] = tested on: Escherichia coli ATCC 25922; type: cell-based; conditions: ATCC 25922
# Method in brief: as §1
# [5] = tested on: Klebsiella pneumoniae 968733; type: cell-based; conditions: 968733
# Method in brief: as §1
# [6] = tested on: Klebsiella pneumoniae SSI #3010; type: cell-based; conditions: SSI #3010
# Method in brief: as §1
# [7] = tested on: Pseudomonas aeruginosa ATCC 27853; type: cell-based; conditions: ATCC 27853
# Method in brief: as §1
# [8] = tested on: human red blood cells (hRBC); assay: Hemolysis; type: cell-based; conditions: red cells of human, 1 h, 200
# Method in brief: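 Read-out is supernatant absorbance at 540 nm, normalised to full lysis by 2% Triton X-100 and zero lysis by PBS with 10% water. Peptides (200 μg/mL) were exposed to 20% v/v washed human erythrocytes at 37° C for 1 h under shaking.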
# male ICR mice = assay: Tolerability in a mouse model (Maximum Tolerated Dose assay); type: in vivo; conditions: groups of 3
# Method in brief: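 Peptides in 0.9% NaCl (pH 6.5-7.6) given s.c. at 30 or 40 mg/kg, twice 12 h apart, to groups of 3 male ICR mice (23±3 g). Acute toxic signs (mortality, convulsions, tremors, sedation) and autonomic effects (diarrhea, salivation, piloerection) observed for 30 min after each dose.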
# [9] = 2 × 40 mg/kg s.c. at a 12-hr interval
SMILES,MIC [1] [µg/mL],Acinetobacter baumannii DSM 30008 MIC [2] [µg/mL],MIC [3] [µg/mL],MIC (Escherichia coli 926415) [µg/mL],Escherichia coli ATCC 25922 MIC [4] [µg/mL],MIC [5] [µg/mL],Klebsiella pneumoniae SSI #3010 MIC [6] [µg/mL],Pseudomonas aeruginosa ATCC 27853 MIC [7] [µg/mL],Hemolysis at 200 μg/mL [8] [%],Mortality and dose (male ICR mice; [9]),MIC [2] [µg/mL],MIC [4] [µg/mL],MIC [6] [µg/mL],MIC [7] [µg/mL],Mortality and dose (male ICR mice; 2 × 30 mg/kg s.c. at a 12-hr interval)
CC[C@@H]1NC(=O)[C@@H](CC(C)C)NC(=O)[C@H](CCN)NC(=O)[C@@H](NC(=O)[C@H](CN)NC(=O)[C@@H](NC(=O)[C@H](CCN)NC(=O)CC[C@@H]2NC(=O)[C@H](CCN)NC(=O)[C@H](Cc3ccc(O)cc3)NC(=O)[C@@H](NC(=O)[C@@H](O)C(C)C)CSSC[C@@H](C(=O)N[C@@H](CO)C(=O)N[C@H](CO)C(N)=O)NC(=O)[C@H]([C@@H](C)CC)NC(=O)[C@H](CO)NC(=O)[C@H](Cc3c[nH]c4ccccc34)NC(=O)CNC(=O)[C@@H](CCN)NC2=O)[C@@H](C)O)CCNC(=O)[C@H]([C@@H](C)O)NC(=O)[C@H](CCN)NC(=O)[C@H](CCN)NC1=O [Ex. 376] (I: H-[Hiv]CY[Dab]E[dDab]GWSICS[dS]-NH2 / II: [Dab]T[Dap][Dab][Dab][dL][Abu][Dab][Dab]T; disulfide I:2-I:11; amide I:5-II:N; lactam II:4-II:C),0.25,0.0625,0.0625,0.25,0.0625,0.5,0.0625,0.125,<1,0/3 died at 2 × 40 mg/kg,,,,,
CC(=O)N[C@H](C(=O)N[C@H]1CSSC[C@@H](C(=O)N[C@@H](CO)C(N)=O)NC(=O)[C@H](C(C)C)NC(=O)[C@H](CO)NC(=O)[C@H](Cc2c[nH]c3ccccc23)NC(=O)CNC(=O)[C@@H](CCN)NC(=O)[C@H](CCC(=O)N[C@@H](CCN)C(=O)N[C@H](C(=O)N[C@@H](CN)C(=O)N[C@H]2CCNC(=O)[C@H]([C@@H](C)O)NC(=O)[C@H](CCN)NC(=O)[C@H](CCN)NC(=O)[C@H](CC(C)C)NC(=O)[C@@H](CC(C)C)NC(=O)[C@H](CCN)NC2=O)[C@@H](C)O)NC(=O)[C@H](CCN)NC(=O)[C@H](Cc2ccc(O)cc2)NC1=O)C(C)C [Ex. 350] (I: Ac-VCY[Dab]E[dDab]GWSVCS-NH2 / II: [Dab]T[Dap][Dab][Dab][dL]L[Dab][Dab]T; disulfide I:2-I:11; amide I:5-II:N; lactam II:4-II:C),0.0625,0.03125,0.125,0.125,0.03125,0.125,0.125,0.125,<1,0/3 died at 2 × 40 mg/kg,,,,,
CC(=O)N[C@H](C(=O)N[C@H]1CSSC[C@@H](C(=O)N[C@@H](CO)C(N)=O)NC(=O)[C@H](C(C)C)NC(=O)[C@H](CO)NC(=O)[C@H](Cc2c[nH]c3ccccc23)NC(=O)[C@H](CCC(=O)N[C@@H](CCN)C(=O)N[C@H](C(=O)N[C@@H](CN)C(=O)N[C@H]2CCNC(=O)[C@H]([C@@H](C)O)NC(=O)[C@H](CCN)NC(=O)[C@H](CCN)NC(=O)[C@H](CC(C)C)NC(=O)[C@@H](CC(C)C)NC(=O)[C@H](CCN)NC2=O)[C@@H](C)O)NC(=O)[C@@H](CCN)NC(=O)[C@H](CCCN)NC(=O)[C@H](CCN)NC(=O)[C@H](Cc2ccc(O)cc2)NC1=O)C(C)C [Ex. 359] (I: Ac-VCY[Dab][Orn][dDab]EWSVCS-NH2 / II: [Dab]T[Dap][Dab][Dab][dL]L[Dab][Dab]T; disulfide I:2-I:11; amide I:7-II:N; lactam II:4-II:C),0.125,0.0625,0.125,0.25,0.0625,0.5,0.125,0.125,1,0/3 died at 2 × 40 mg/kg,,,,,
CC(=O)N[C@H](C(=O)N[C@H]1CSSC[C@@H](C(=O)N[C@@H](CO)C(N)=O)NC(=O)[C@H](C(C)C)NC(=O)[C@H](CO)NC(=O)[C@H](Cc2c[nH]c3ccccc23)NC(=O)[C@H](CCC(=O)N[C@@H](CCN)C(=O)N[C@H](C(=O)N[C@@H](CN)C(=O)N[C@H]2CCNC(=O)[C@H]([C@@H](C)O)NC(=O)[C@H](CCN)NC(=O)[C@H](CCN)NC(=O)[C@H](CC(C)C)NC(=O)[C@@H](CC(C)C)NC(=O)[C@H](CCN)NC2=O)[C@@H](C)O)NC(=O)[C@@H](CCN)NC(=O)[C@H]([C@@H](C)O)NC(=O)[C@H](CCN)NC(=O)[C@H](Cc2ccc(O)cc2)NC1=O)C(C)C [Ex. 364] (I: Ac-VCY[Dab]T[dDab]EWSVCS-NH2 / II: [Dab]T[Dap][Dab][Dab][dL]L[Dab][Dab]T; disulfide I:2-I:11; amide I:7-II:N; lactam II:4-II:C),0.125,0.0625,0.125,0.25,0.0625,0.125,0.0625,0.125,<1,0/3 died at 2 × 40 mg/kg,,,,,
CC(C)C[C@@H]1NC(=O)[C@@H](CC(C)C)NC(=O)[C@H](CCN)NC(=O)[C@@H](NC(=O)[C@H](CN)NC(=O)[C@@H](NC(=O)[C@H](CCN)NC(=O)CC[C@@H]2NC(=O)[C@H](CCN)NC(=O)[C@H](Cc3ccc(O)cc3)NC(=O)[C@@H](NC(=O)[C@@H](O)C(C)C)CSSC[C@@H](C(=O)N[C@H](CO)C(N)=O)NC(=O)[C@H](C(C)C)NC(=O)[C@H](CO)NC(=O)[C@H](Cc3c[nH]c4ccccc34)NC(=O)[C@H](CO)NC(=O)[C@@H](CCN)NC2=O)[C@@H](C)O)CCNC(=O)[C@H]([C@@H](C)O)NC(=O)[C@H](CCN)NC(=O)[C@H](CCN)NC1=O [Ex. 344] (I: H-[Hiv]CY[Dab]E[dDab]SWSVC[dS]-NH2 / II: [Dab]T[Dap][Dab][Dab][dL]L[Dab][Dab]T; disulfide I:2-I:11; amide I:5-II:N; lactam II:4-II:C),0.25,0.125,1,0.125,0.0625,0.25,0.0625,0.125,<1,0/3 died at 2 × 40 mg/kg,,,,,
CC(=O)N[C@H](C(=O)N[C@H]1CSSC[C@@H](C(=O)N[C@@H](CO)C(N)=O)NC(=O)[C@H](C(C)(C)C)NC(=O)[C@H](CO)NC(=O)[C@H](Cc2c[nH]c3ccccc23)NC(=O)[C@H](CCN)NC(=O)[C@@H](CCN)NC(=O)[C@H](CCC(=O)N[C@@H](CCN)C(=O)N[C@H](C(=O)N[C@@H](CN)C(=O)N[C@H]2CCNC(=O)[C@H]([C@@H](C)O)NC(=O)[C@H](CCN)NC(=O)[C@H](CCN)NC(=O)[C@H]([C@@H](C)O)NC(=O)[C@@H](CC(C)C)NC(=O)[C@H](CCN)NC2=O)[C@@H](C)O)NC(=O)[C@H](CO)NC(=O)[C@H](Cc2ccc(O)cc2)NC1=O)C(C)C [Ex. 261] (I: Ac-VCYSE[dDab][Dab]WS[Tle]CS-NH2 / II: [Dab]T[Dap][Dab][Dab][dL]T[Dab][Dab]T; disulfide I:2-I:11; amide I:5-II:N; lactam II:4-II:C),0.0625,,0.125,0.125,,0.25,,,1,,0.03125,0.03125,0.0625,0.125,0/3 died at 2 × 30 mg/kg
CC(=O)N[C@H](C(=O)N[C@H]1CSSC[C@@H](C(=O)N[C@@H](CO)C(N)=O)NC(=O)[C@H](C(C)C)NC(=O)CNC(=O)[C@H](Cc2c[nH]c3ccccc23)NC(=O)[C@H](CO)NC(=O)[C@@H](CCN)NC(=O)[C@H](CCC(=O)N[C@@H](CCN)C(=O)N[C@H](C(=O)N[C@@H](CN)C(=O)N[C@H]2CCNC(=O)[C@H]([C@@H](C)O)NC(=O)[C@H](CCN)NC(=O)[C@H](CCN)NC(=O)[C@H](CC(C)C)NC(=O)[C@@H](CC(C)C)NC(=O)[C@H](CCN)NC2=O)[C@@H](C)O)NC(=O)[C@H](CCN)NC(=O)[C@H](Cc2ccc(O)cc2)NC1=O)C(C)C [Ex. 335] (I: Ac-VCY[Dab]E[dDab]SWGVCS-NH2 / II: [Dab]T[Dap][Dab][Dab][dL]L[Dab][Dab]T; disulfide I:2-I:11; amide I:5-II:N; lactam II:4-II:C),0.25,0.0625,0.25,0.25,0.0625,0.5,0.0625,0.125,<1,0/3 died at 2 × 40 mg/kg,,,,,
